Each structure is given as a SMILES string.

The experiment in a line: Half maximal inhibition of binding of [125I]CCK-8 to Cholecystokinin type B receptor in guinea pig cerebral cortex.
Regarding `O=C(Cc1ccc(C(F)(F)F)cc1C(F)(F)F)N[C@@H]1N=C(c2ccccc2)c2ccccc2N(CC(F)(F)F)C1=O` [2-(2,4-Bis-trifluoromethyl-phenyl)-N-[(R)-2-oxo-5-phenyl-1-(2,2,2-trifluoro-ethyl)-2,3-dihydro-1H-benzo[e][1,4]diazepin-3-yl]-acetamide], the IC50 (commonly the point on the concentration scale where inhibition reaches its midpoint) was above 1000 nM.

The compound `O=C(Cc1ccc(C(F)(F)F)cc1C(F)(F)F)N[C@H]1N=C(c2ccccc2)c2ccccc2N(CC(F)(F)F)C1=O` [2-(2,4-Bis-trifluoromethyl-phenyl)-N-[(S)-2-oxo-5-phenyl-1-(2,2,2-trifluoro-ethyl)-2,3-dihydro-1H-benzo[e][1,4]diazepin-3-yl]-acetamide] gave an IC50 above 1000 nM.

`CC(C)N1C(=O)[C@H](NC(=O)Cc2cc(Cl)cc(Cl)c2)N=C(c2ccccc2)c2ccccc21` [2-(3,5-Dichloro-phenyl)-N-((R)-1-isopropyl-2-oxo-5-phenyl-2,3-dihydro-1H-benzo[e][1,4]diazepin-3-yl)-acetamide] registered an IC50 above 1000 nM.

Compound `CN1C(=O)[C@H](NC(=O)C(N)Cc2ccccc2)N=C(c2ccccc2)c2ccccc21` (stereo partly drawn) [2-Amino-N-((R)-1-methyl-2-oxo-5-phenyl-2,3-dihydro-1H-benzo[e][1,4]diazepin-3-yl)-3-phenyl-propionamide] displayed an IC50 above 1000 nM.

`CN1C(=O)[C@H](NC(=O)CCc2ccc(Cl)cc2Cl)N=C(c2ccccc2)c2ccccc21` [3-(2,4-Dichloro-phenyl)-N-((R)-1-methyl-2-oxo-5-phenyl-2,3-dihydro-1H-benzo[e][1,4]diazepin-3-yl)-propionamide] yielded an IC50 above 1000 nM.

For `CN(C)CCN1C(=O)C(NC(=O)CCc2ccc(Cl)cc2Cl)N=C(c2ccccc2)c2ccccc21` (centres undefined) [3-(2,4-Dichloro-phenyl)-N-[1-(2-dimethylamino-ethyl)-2-oxo-5-phenyl-2,3-dihydro-1H-benzo[e][1,4]diazepin-3-yl]-propionamide], the IC50 was above 1000 nM.

As to `CC(=O)Nc1ccc(CCC(=O)N[C@@H]2N=C(c3ccccc3)c3ccccc3N(C)C2=O)cc1` [3-(4-Acetylamino-phenyl)-N-((R)-1-methyl-2-oxo-5-phenyl-2,3-dihydro-1H-benzo[e][1,4]diazepin-3-yl)-propionamide], the IC50 was above 1000 nM.

The compound `CN1C(=O)[C@H](NC(=O)CCc2ccc(N)cc2)N=C(c2ccccc2)c2ccccc21` [3-(4-Amino-phenyl)-N-((R)-1-methyl-2-oxo-5-phenyl-2,3-dihydro-1H-benzo[e][1,4]diazepin-3-yl)-propionamide] gave an IC50 above 1000 nM.

`CC(C)N1C(=O)[C@H](NC(=O)CCC2CCCCC2)N=C(c2ccccc2)c2ccccc21` [3-Cyclohexyl-N-((R)-1-isopropyl-2-oxo-5-phenyl-2,3-dihydro-1H-benzo[e][1,4]diazepin-3-yl)-propionamide] registered a concentration for half-maximal inhibition (IC50) above 1000 nM.

On to `CN1C(=O)[C@H](NC(=O)CCC2CCCCC2)N=C(c2ccccc2)c2ccccc21` [3-Cyclohexyl-N-((R)-1-methyl-2-oxo-5-phenyl-2,3-dihydro-1H-benzo[e][1,4]diazepin-3-yl)-propionamide], for which the IC50 was above 1000 nM.

On to `CN1C(=O)[C@H](NC(=O)/C=C/c2ccc(Cl)cc2Cl)N=C(c2ccccc2)c2ccccc21` [(E)-3-(2,4-Dichloro-phenyl)-N-((R)-1-methyl-2-oxo-5-phenyl-2,3-dihydro-1H-benzo[e][1,4]diazepin-3-yl)-acrylamide], for which the IC50 was above 1000 nM.

In the case of `CN1C(=O)[C@H](NC(=O)CCc2ccccc2)N=C(c2ccccc2)c2ccccc21` [(R)-N-(1-methyl-2-oxo-5-phenyl-2,3-dihydro-1H-benzo[e][1,4]diazepin-3-yl)-3-phenylpropanamide], the IC50 was above 1000 nM.

As to `CN1C(=O)[C@H](NC(=O)Cc2ccccc2)N=C(c2ccccc2)c2ccccc21` [N-((R)-1-Methyl-2-oxo-5-phenyl-2,3-dihydro-1H-benzo[e][1,4]diazepin-3-yl)-2-phenyl-acetamide], the IC50 was above 1000 nM.

Take `CN1C(=O)[C@H](NC(=O)c2ccccc2)N=C(c2ccccc2)c2ccccc21` [N-((R)-1-Methyl-2-oxo-5-phenyl-2,3-dihydro-1H-benzo[e][1,4]diazepin-3-yl)-benzamide]: the IC50 was above 1000 nM.

These data come from BindingDB's records for doi:10.1021/jm970517u (Merck Research Laboratories, 1998).
